The results in this text go back to publication PMC8097418, “In Vitro and In Vivo Antibacterial Activities of a Novel Quinolone Compound, OPS-2071, against Clostridioides difficile” (Antimicrobial Agents and Chemotherapy, 2021).

The test system of assay [1] is C. difficile ATCC 700057. Put plainly: Postantibiotic effect (PAE). The format is cell-based, Clostridioides difficile. The following applies: for Postantibiotic effect: 1 h exposure. The protocol: C. difficile ATCC 700057 was cultured in GAM agar and adjusted in GAM broth to approximately 10^6 CFU/ml. The bacterial suspensions were preincubated at 37°C for 1 h. […] After preincubation, test and reference solutions were added to each bacterial suspension in a test tube, and the suspensions were cultured for 1 h. After exposure to the test compounds, bacterial suspensions were washed with GAM broth and cultured for 6 h. […] The PAE was defined according to Craig and Gudmundsson as PAE = T − C, where T is the time required for the viable counts of the exposed bacteria to increase by 1 log10 above the counts observed immediately after washing, and C is the corresponding time for the antibiotic unexposed controls ([44]).

Assay [2] concerns the target DNA gyrase of C. difficile (Clostridioides difficile, UniProt Q18C89+Q18C90). Description: biochemical.
The next assay deals with C. difficile ATCC 43255. Put plainly: In vivo hamster model of C. difficile infection. On the set-up: species or system golden Syrian hamsters. Here is the method:
C. difficile ATCC 43255 was cultured on GAM agar, and a bacterial suspension was prepared in saline ([26]). […] Hamsters were infected using oral gavage with 0.5 ml of suspension containing approximately 10^6 CFU of C. difficile (day −1). The next day, the animals were administered clindamycin phosphate (0.2 mg/ml in water) by oral gavage at a dose of 5 ml/kg of body weight, for a final dose of 1 mg/kg (day 0). The animals were allocated to the test groups using a stratified randomization method based on the body weight of each infected animal. The test compounds were administered by oral gavage once daily for 5 days (OPS-2071, 0.008 to 1 mg/kg; fidaxomicin, 0.04 mg/kg to 5 mg/kg; vancomycin, 0.04 to 5 mg/kg [5-fold dilution]). Infected control animals were administered 5% (wt/vol) gum arabic solution by oral gavage. […] The cecal contents of dead animals were tested for toxin A and toxin B using C.Diff Quik Chek Complete (Abbott Diagnostics Medical Co., Ltd., Tokyo, Japan) to confirm that the death of the animal was due to CDI.
The statistical significance of OPS-2071, fidaxomicin, and vancomycin treatment was analyzed at all doses against vehicle. Survival curves were estimated for each group using the Kaplan-Meier method. Differences in survival homogeneity in each group were evaluated with a log-rank test with Dunnett-type (two-sided) comparison.

Assay [3] relates to C. difficile ATCC 700057. Description: Killing kinetics (time-kill curves). The format is cell-based, Clostridioides difficile. Here is the method: The test tubes were incubated for 48 h. The CFU/ml values of the bacterial suspensions were calculated at 0, 2, 4, 6, 24, and 48 h by culturing 0.1-ml samples of serial 10-fold dilutions on GAM agar plates at 37°C under anaerobic conditions and then counting the number of growing colonies. The CFU/ml value at each time point is from one sample of datum.

SMILES strings stand for the structures.

Chain of DNA gyrase of C. difficile (Q18C90 entry or part of it): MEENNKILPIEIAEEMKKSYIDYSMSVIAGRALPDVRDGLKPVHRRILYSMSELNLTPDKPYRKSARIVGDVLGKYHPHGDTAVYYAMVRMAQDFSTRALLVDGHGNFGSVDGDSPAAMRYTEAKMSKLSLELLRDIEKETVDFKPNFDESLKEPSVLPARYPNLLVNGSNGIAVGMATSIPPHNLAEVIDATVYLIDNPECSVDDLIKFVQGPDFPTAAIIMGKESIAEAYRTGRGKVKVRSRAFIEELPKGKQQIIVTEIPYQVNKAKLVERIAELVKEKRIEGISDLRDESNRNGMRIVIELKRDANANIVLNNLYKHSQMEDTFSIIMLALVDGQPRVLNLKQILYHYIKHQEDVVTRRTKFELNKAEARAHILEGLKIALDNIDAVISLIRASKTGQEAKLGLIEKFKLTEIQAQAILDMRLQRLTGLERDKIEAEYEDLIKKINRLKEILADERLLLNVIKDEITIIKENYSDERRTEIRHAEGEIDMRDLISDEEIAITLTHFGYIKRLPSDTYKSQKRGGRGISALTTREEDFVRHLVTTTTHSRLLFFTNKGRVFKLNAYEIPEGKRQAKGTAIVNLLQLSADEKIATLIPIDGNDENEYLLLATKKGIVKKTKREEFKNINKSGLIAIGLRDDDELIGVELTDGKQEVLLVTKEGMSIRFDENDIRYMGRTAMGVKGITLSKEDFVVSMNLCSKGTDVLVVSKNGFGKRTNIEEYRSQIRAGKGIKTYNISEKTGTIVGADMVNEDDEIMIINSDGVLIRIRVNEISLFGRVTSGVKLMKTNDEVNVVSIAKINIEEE
Chain of DNA gyrase of C. difficile (Q18C89 entry or part of it): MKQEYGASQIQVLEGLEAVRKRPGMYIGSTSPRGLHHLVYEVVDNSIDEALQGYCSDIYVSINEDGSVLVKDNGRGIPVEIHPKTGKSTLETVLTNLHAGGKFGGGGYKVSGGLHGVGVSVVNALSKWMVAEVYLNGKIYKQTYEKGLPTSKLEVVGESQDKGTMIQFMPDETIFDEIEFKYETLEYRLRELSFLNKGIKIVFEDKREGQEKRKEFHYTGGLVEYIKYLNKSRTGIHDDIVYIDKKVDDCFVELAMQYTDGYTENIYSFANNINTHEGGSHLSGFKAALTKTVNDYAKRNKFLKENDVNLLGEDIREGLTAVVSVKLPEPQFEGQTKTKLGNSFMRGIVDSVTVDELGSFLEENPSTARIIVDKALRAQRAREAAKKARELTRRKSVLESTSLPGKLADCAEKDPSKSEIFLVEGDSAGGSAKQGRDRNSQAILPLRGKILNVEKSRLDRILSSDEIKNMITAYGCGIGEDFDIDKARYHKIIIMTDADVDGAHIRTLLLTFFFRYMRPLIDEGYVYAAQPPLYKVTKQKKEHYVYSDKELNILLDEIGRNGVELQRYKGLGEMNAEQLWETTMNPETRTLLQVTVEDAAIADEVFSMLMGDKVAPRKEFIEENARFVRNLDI

One may read the IC50 as the point on the concentration scale where inhibition reaches its midpoint. Lower therefore signals inhibition by little substance. In the case of `Cc1c(-c2cnc(N)c(C#N)c2)c(F)cc2c(=O)c(C(=O)O)cn(C3CC3)c12` [OPS-2071, 7-(6-amino-5-cyanopyridin-3-yl)-1-cyclopropyl-6-fluoro-8-methyl-4-oxo-1,4-dihydroquinoline-3-carboxylic acid], the “PAEs at 4- and 8-fold the MIC” value in the assay on C. difficile ATCC 700057 [1] (4- and 8-fold the MIC) is reported as 3.93 to 4.04 h. Moreover, in the assay with C. difficile ATCC 700057 [1] (4× MIC), the Postantibiotic effect is 3.93 h. Also, the Postantibiotic effect in the assay with C. difficile ATCC 700057 [1] (8× MIC) turned out to be 4.04 h. In addition, the half-maximal inhibitory concentration (IC50) in assay [2] was 608 nM. Besides, in the assay with C. difficile ATCC 43255 (hamster, in vivo), the “ED50 fold lower than that of fidaxomicin” value is on record as 52.1 fold and the “ED50 fold lower than that of vancomycin” value was 39.0 fold. Also, the “50% effective dose (ED50)” value in the assay with C. difficile ATCC 43255 (survival on day 20, oral once daily for 5 days, probit method) was 0.0313 mg/kg/day. Further, the “dosages with significant efficacy compared with vehicle control” value with C. difficile ATCC 43255 (survival, log-rank test) is recorded as at least 0.04 mg/kg. Moreover, the “regrowth of the bacteria” value in the assay on C. difficile ATCC 700057 [3] (after 48 h of incubation) is “regrowth of the bacteria did not occur”. Further, in the assay with C. difficile ATCC 700057 [3] (concentrations higher than the MIC), the “time to undetectable level of viable bacteria” value was at most 24 h. In addition, the “reduction of viable bacteria” value in the assay on C. difficile ATCC 700057 [3] (concentrations higher than the MIC, first 2 h) came out at 2 log.
